Patent US10143696B2, “Methods and compositions for decreasing gastric emptying” (priority 2015, dated 2018)
Entries after “also recorded” stand apart in the source; their conditions may differ.

Experiments:
Format in all cases: in vivo, rat
Sprague-Dawley rats [1] = test: Gastrointestinal transit, charcoal meal assay; conditions: for dosage level with significant effect on stomach weight / stomach weight: charcoal meal assay; for stomach weight: vs vehicle treated animals; for gastrointestinal transit (% small intestinal transit): charcoal meal, 60 minutes pretreatment, vs vehicle
Description: Small intestinal transit was measured based on a known method which involved the oral administration of a charcoal meal (Gmerek et al. (1986). “Independent central and peripheral mediation of morphine-induced inhibition of gastrointestinal transit in rats.” J Pharmacol Exp Ther 236(1): 8-13). Rats were fasted with free access to water for 18 hours. Test compound or vehicle was dosed prior to oral administration of a charcoal slurry containing activated charcoal, flour and water in a ratio of 1:2:7.5 (10 ml/kg orally). One hour after receiving the charcoal slurry, rats were euthanized by CO2 asphyxiation. The stomach and GI tract was excised from each animal. Whole stomach weight was recorded and the length of the small intestine (cm) (stomach to cecum) and the distance (cm) to the leading edge of charcoal was measured. Small intestinal transit data are expressed as a percentage of the distance traveled (i.e. % small intestinal transit=(distance charcoal traveled)/(total length of small intestine (stomach to cecum)×100). Pretreatment times were determined on the basis of pharmacokinetic data (not shown) and were as follows: Compound A, 60 minutes, Compound C, 60 minutes; carbamazepine, 60 minutes. Morphine was administered with a pretreatment time of 30 mins based on previous experience.

Sprague-Dawley rats [2] = test: Gastric emptying of a test meal in rats
Description: Rats were fasted overnight (16-18 hours) with free access to water. The next morning, compound was administered and animals were individually housed in bedding-free cages with pre-weighed food available ad libitum and access to water for 2 hours. The water and food were then removed and the remaining food was re-weighed. Gastric emptying of the ingested meal was assessed 4 hours later. Animals were euthanized by CO2 inhalation followed by thoracotomy. The abdominal cavity was opened, the pylorus and cardia were clamped and the stomach was removed. The excised stomach was weighed and then opened along the greater curvature, rinsed with tap water, lightly dried and re-weighed. The amount of food in the stomach (grams) was estimated based on the difference between the total weight of the stomach plus its contents and the weight of the stomach after the contents were removed. The meal ingested (food intake) was determined by the difference between pre- and post-feeding weight at the end of the 2 hour period. Gastric emptying during the 4 hour experiment is represented as: Gastric emptying=[1−(gastric content/food intake)]×100. Gastric Secretion
Male, Sprague-Dawley rats (weighing between 229-264 g each and 4 rats per test group) were fasted overnight (19 hours). The rats were then orally administered 10 mg/kg, 30 mg/kg or 100 mg/kg of Compound A with a 0.5% MC or Capryol:Solutol:Polyethyleneglycol (CSP) vehicle or with a 0.5% MC or CSP vehicle alone. The rats were then placed in individual, bedding-free cages and allowed ad libitium access to pre-weighed food and water for two hours. The food and water were then removed and the food was reweighed. Gastric emptying was then assessed four hours later by euthanizing the rats and analyzing the stomach and stomach contents. […] Data are represented as the means+the standard error of the means (S.E.M). % Gastric Emptying in 4 hours=(1−(gastric content/food intake))×100. […] Data are represented as the means+S.E.M.
Male, Sprague-Dawley rats (weighing between 235-268 g each and 4-6 rats per test group) were fasted overnight (19 hours). The rats were then subcutaneously administered 10 mg/kg, 30 mg/kg or 100 mg/kg of carbamazepine (Compound B) with a 25% HPBCD vehicle or with a 25% HPBCD vehicle alone. Some test animals were not dosed (i.e., naïve). The rats were then placed in individual, bedding-free cages and allowed ad libitium access to pre-weighed food and water for two hours. The food and water were then removed and the food was reweighed. […] Data are represented as the means+S.E.M. % Gastric Emptying in 4 hours=(1−(gastric content/food intake))×100.
Male, Sprague-Dawley rats (weighing between 238-274 g each and 6 rats per test group) were fasted overnight (19 hours). The rats were then orally administered 30 mg/kg, 100 mg/kg or 300 mg/kg of carbamazepine (Compound B) with a 0.5% MC vehicle or with a 0.5% MC vehicle alone. The rats were then placed in individual, bedding-free cages and allowed ad libitium access to pre-weighed food and water for two hours. The food and water were then removed and the food was reweighed. […] Data are represented as the means+S.E.M. % Gastric Emptying in 4 hours=(1−(gastric content/food intake))×100.
Male, Sprague-Dawley rats (weighing between 235-276 g each and 4-6 rats per test group) were fasted overnight (19 hours).

Sprague-Dawley rats [3] = test: Gastric secretion volume and pH in fasted rats; conditions: lansoprazole 30 mg/kg orally, alone (Example 17)
Description: Gastric section and acidity was assessed by direct measurement in fasted animals (Melo et al. (2006). “Effect of acid secretion blockade on acute gastric mucosal lesions induced by Tityus serrulatus scorpion toxin in anaesthetized rats.” Toxicon 48(5): 543-549). Rats were fasted with free access to water for 24 hours on wire inserts without bedding. The next day, all rats were dosed orally with 0.5% MC (5 ml/kg) to remove any residual stomach contents and test compound or vehicle was administered. The animals were water deprived for 3 hours, anesthetized with isoflurane (5% in O2), and a laparotomy was conducted followed by tight ligation of the pylorus and cardia. After ligation, the stomach was removed and the rat was immediately euthanized by decapitation. The stomach was opened along the greater curvature and gastric fluid collected into Eppendorf tubes and centrifuged (5 min at 10×1000 g). pH was determined by pipetting gastric fluid directly onto an indicator stick (Whatman, Panpeha Plus, pH0-14). Data are represented as the mean volume and mean pH.
Male, Sprague-Dawley rats (weighing between 254-270 g each and 6 rats per test group) were fasted overnight (24 hours) on wire inserts without bedding. The rats were first orally dosed with 0.5% MC vehicle and then subcutaneously injected with 3 mg/kg or 10 mg/kg of Compound A with a 25% HPBCD vehicle or with a 25% HPBCD vehicle alone. The test animals were water deprived for 3 hours and then anesthetized with isoflurane and the pylorus and cardia were tightly ligated. The stomachs were then removed and the rats were euthanized. The gastric fluid was removed from the stomachs and collected in eppendorf tubes by cutting along the greatest curvature and spun in a centrifuge. Gastric secretion data were analyzed by a one-way ANOVA using a Bonferroni Multiple Comparison test, where *P<0.05 and **P<0.01 as compared to the appropriate vehicle. Data are represented as the means+S.E.M. PH data were analyzed by a one-way ANOVA using Dunnett's Multiple Comparison Test. Data are represented as the means+S.E.M.
This Example measured volume and pH of gastric secretion three hours post subcutaneous administration of 10 mg/kg of Compound A. The animals were water deprived during this time.

[4] = p.o. 30, 100, 300 mg/kg, 0.5% MC vehicle (Example 5)
[5] = s.c. 10, 30, 100 mg/kg, 25% HPBCD vehicle (Example 4)
[6] = comparison at equal or similar dosages, routes and vehicles
[7] = p.o. 10 mg/kg and 30 mg/kg, 0.5% MC vehicle (Example 6)
[8] = p.o. 100 mg/kg and 300 mg/kg, 0.5% MC vehicle (Example 7)
[9] = p.o. 100 mg/kg, 0.5% MC vehicle (Example 6)
[10] = s.c. 10, 30, 100 mg/kg, 25% HPBCD vehicle (Example 6)
[11] = i.p. 10, 30, 100 mg/kg, 25% HPBCD vehicle (Example 8)

Structure (SMILES): NC(=O)N1c2ccccc2C=Cc2ccccc21 [Compound B, carbamazepine, reference compound]
- dosage level with significant effect on stomach weight (Sprague-Dawley rats [1]): 30 mg/kg
- stomach weight (Sprague-Dawley rats [1]): statistically significant increase in stomach weight
- gastrointestinal transit (% small intestinal transit) (Sprague-Dawley rats [1]): No statistically significant decrease in gastrointestinal transit; also recorded: decreasing trend
- percent of gastric inhibition, oral 0.5% MC compared with subcutaneous 25% HPBCD (Sprague-Dawley rats [2]; equal dosage, Examples 4 and 5): numerically more potent
- % Gastric Emptying in 4 hours (Sprague-Dawley rats [2]; [4]): inhibits gastric emptying
- food intake (Sprague-Dawley rats [2]; [4]): reduces food intake
- stomach weight (Sprague-Dawley rats [2]; [4]): increases stomach weight
- stomach weight (Sprague-Dawley rats [2]; s.c. 100 mg/kg, 25% HPBCD vehicle (Example 4)): stomach weight increase
- % Gastric Emptying in 4 hours (Sprague-Dawley rats [2]; [5]): inhibits the percent of gastric emptying
- food intake (Sprague-Dawley rats [2]; [5]): food intake decreased

Structure (SMILES): NC(=O)[C@@H]1CC[C@H](c2ccc(OCc3ccccc3F)cc2)N1 [Compound C]
- dosage level with significant effect on stomach weight (Sprague-Dawley rats [1]): 100 mg/kg
- stomach weight (Sprague-Dawley rats [1]): statistically significant increase in stomach weight
- gastrointestinal transit (% small intestinal transit) (Sprague-Dawley rats [1]): No statistically significant decrease in gastrointestinal transit
- gastric emptying inhibition potency compared between compounds (Sprague-Dawley rats [2]; [6]): least potent
- % Gastric Emptying in 4 hours (Sprague-Dawley rats [2]; [7]): did not affect
- food intake (Sprague-Dawley rats [2]; [7]): reduced food intake
- stomach weight (Sprague-Dawley rats [2]; [7]): did not affect
- % Gastric Emptying in 4 hours (Sprague-Dawley rats [2]; [8]): inhibits gastric emptying
- stomach weight (Sprague-Dawley rats [2]; [8]): increases stomach weight
- % Gastric Emptying in 4 hours (Sprague-Dawley rats [2]; [9]): inhibits the percentage of gastric emptying
- food intake (Sprague-Dawley rats [2]; [9]): reduces food intake
- stomach weight (Sprague-Dawley rats [2]; [9]): increases stomach weight
- food intake (Sprague-Dawley rats [2]; p.o. 10-300 mg/kg, 0.5% MC vehicle (Example 7)): reduces food intake
- % Gastric Emptying in 4 hours (Sprague-Dawley rats [2]; [10]): did not inhibit the percentage of gastric emptying
- food intake (Sprague-Dawley rats [2]; [10]): decreased
- stomach weight (Sprague-Dawley rats [2]; [10]): decreased

Structure (SMILES): O=S(=O)(Nc1nncs1)c1cc(Cl)c(Oc2ccc(C(F)(F)F)cc2-c2ccnnc2)cc1F [Compound D]
- gastric emptying inhibition potency compared between compounds (Sprague-Dawley rats [2]; [6]): greater gastric emptying inhibition potency than Compounds B and C
- stomach weight (Sprague-Dawley rats [2]; i.p. 10 mg/kg and 100 mg/kg, 25% HPBCD vehicle (Example 8)): increases stomach weight
- % Gastric Emptying in 4 hours (Sprague-Dawley rats [2]; [11]): inhibits gastric emptying
- food intake (Sprague-Dawley rats [2]; [11]): reduces food intake

Structure (SMILES): Cc1c(OCC(F)(F)F)ccnc1C[S+]([O-])c1nc2ccccc2[nH]1 (centres unmarked) [Lansoprazole, lansoprazole, reference compound]
- pH of gastric secretion (Sprague-Dawley rats [3]): increase the pH
- volume of gastric secretion (Sprague-Dawley rats [3]): did not affect volume of gastric secretion

Structure (SMILES): NC1=N[C@H](O)[C@H]2[C@H]3O[C@]4(O)O[C@@H]([C@@H](O)[C@@]2(N1)[C@@H]4O)[C@]3(O)CO [TTX, tetrodotoxin, reference compound]
- gastric emptying inhibition potency compared between compounds (Sprague-Dawley rats [2]; rat, in vivo): comparable to that achieved by 30 mg/kg of Compound A administered orally
- % Gastric Emptying in 4 hours (Sprague-Dawley rats [2]; rat, in vivo, sc): inhibits gastric emptying; also recorded: statistically significant decrease in gastric emptying
- food intake (Sprague-Dawley rats [2]; rat, in vivo, sc): reduces food intake; also recorded: dose dependent decrease in food intake

Structure (SMILES): CN1CC[C@]23c4c5ccc(O)c4O[C@H]2[C@@H](O)C=C[C@H]3[C@H]1C5 [morphine, reference compound]
- gastrointestinal transit (Sprague-Dawley rats [1]; rat, in vivo): less than 35%
- stomach weight (average) (Sprague-Dawley rats [1]; rat, in vivo): over 7 g

Structure (SMILES): COc1cc2nc(N3CCN(C(=O)C4CCCO4)CC3)nc(N)c2cc1OC (centres unmarked) [terazosin, reference compound]
- % Gastric Emptying in 4 hours (Sprague-Dawley rats [2]; rat, in vivo): Neither terazosin nor atenolol alone had a significant effect
